ChEMBL document CHEMBL1201862, “PubChem BioAssay data set” (2004)
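Grown in 96-well plates, cells were treated for 48 hours with each compound at five concentrations. Insufficient inhibition: endpoint recorded as highest concentration tested. Abbreviation: GI50, concentration required for 50% inhibition of growth.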 Active and inactive are the calls of the source. Rule as the data show it: active = GI50 up to about 1.1 µM and inactive = higher.

Assays:
Assay in all cases: NCI-60 cell line screen, 48 h
SF-539 = tested on: SF-539
RXF 393 = tested on: RXF 393
NCI-H226 = tested on: NCI-H226
ACHN = tested on: ACHN
SNB-75 = tested on: SNB-75
U-251 = tested on: U-251
SK-MEL-5 = tested on: SK-MEL-5
SK-MEL-28 = tested on: SK-MEL-28
SNB-19 = tested on: SNB-19
Malme-3M = tested on: Malme-3M
UO-31 = tested on: UO-31
COLO 205 = tested on: COLO 205
SK-OV-3 = tested on: SK-OV-3
UACC-62 = tested on: UACC-62
OVCAR-4 = tested on: OVCAR-4
MDA-MB-435 = tested on: MDA-MB-435
IGROV-1 = tested on: IGROV-1
PC-3 = tested on: PC-3
786-0 = tested on: 786-0
HCT-15 = tested on: HCT-15

SMILES	GI50 (SF-539)	GI50 (RXF 393)	GI50 (NCI-H226)	GI50 (ACHN)	GI50 (SNB-75)	GI50 (U-251)	GI50 (SK-MEL-5)	GI50 (SK-MEL-28)	GI50 (SNB-19)	GI50 (Malme-3M)	GI50 (UO-31)	GI50 (COLO 205)	GI50 (SK-OV-3)	GI50 (UACC-62)	GI50 (OVCAR-4)	GI50 (MDA-MB-435)	GI50 (IGROV-1)	GI50 (PC-3)	GI50 (786-0)	GI50 (HCT-15) [µM]
O=C(O)c1cnc2cc(OCc3ccccc3)ccc2c1O	19 µM (inactive)	18.3 µM (inactive)	18.3 µM (inactive)	18.5 µM (inactive)	15.7 µM (inactive)	18.6 µM (inactive)	17.7 µM (inactive)	16 µM (inactive)	17.7 µM (inactive)	13.8 µM (inactive)	17.3 µM (inactive)	18.2 µM (inactive)	22.1 µM (inactive)	16.8 µM (inactive)	16.6 µM (inactive)	16.2 µM (inactive)	18.3 µM (inactive)	17.1 µM (inactive)	18.5 µM (inactive)	17.8
CN(CC(=O)O)Cc1oc(CO)cc(=O)c1O	> 100 µM (inactive)	> 100 µM (inactive)	> 100 µM (inactive)	> 100 µM (inactive)	> 100 µM (inactive)	> 100 µM (inactive)	> 100 µM (inactive)	> 100 µM (inactive)	> 100 µM (inactive)	> 100 µM (inactive)	> 100 µM (inactive)	> 100 µM (inactive)	> 100 µM (inactive)	> 100 µM (inactive)	> 100 µM (inactive)	> 100 µM (inactive)	> 100 µM (inactive)	> 100 µM (inactive)	> 100 µM (inactive)	> 100
OC/C=C/[C@H](OCc1ccccc1)[C@H](/C=C/CO)OCc1ccccc1	> 100 µM (inactive)	9.06 µM (inactive)	> 100 µM (inactive)	49.3 µM (inactive)	32.7 µM (inactive)	24.5 µM (inactive)	27.9 µM (inactive)	35.8 µM (inactive)	31.2 µM (inactive)	> 100 µM (inactive)	64.1 µM (inactive)	59.3 µM (inactive)	> 100 µM (inactive)	80 µM (inactive)	29.8 µM (inactive)	40.1 µM (inactive)	42.5 µM (inactive)	32.3 µM (inactive)	44.9 µM (inactive)	34.8
C[N+](C)(N)Cc1csc(-c2ccc(Cl)cc2)n1	> 100 µM (inactive)	> 100 µM (inactive)	48.2 µM (inactive)	> 100 µM (inactive)	42.4 µM (inactive)	> 100 µM (inactive)	61.5 µM (inactive)	> 100 µM (inactive)	> 100 µM (inactive)	39.4 µM (inactive)	> 100 µM (inactive)	> 100 µM (inactive)	> 100 µM (inactive)	> 100 µM (inactive)	> 100 µM (inactive)	> 100 µM (inactive)	> 100 µM (inactive)	> 100 µM (inactive)	> 100 µM (inactive)	> 100
O=C1C=CC[C@H](/C=C/C[C@@H](O)C[C@H](O)/C=C/c2ccccc2)O1	9.89 µM (inactive)	6.89 µM (inactive)	12.8 µM (inactive)	14.6 µM (inactive)	13.6 µM (inactive)	11.9 µM (inactive)	13.7 µM (inactive)	16.7 µM (inactive)	19.2 µM (inactive)	14.9 µM (inactive)	13.2 µM (inactive)	7.87 µM (inactive)	15 µM (inactive)	15 µM (inactive)	14.6 µM (inactive)	11.3 µM (inactive)	13.6 µM (inactive)	14.5 µM (inactive)	16.1 µM (inactive)	10.5
CCOC(=O)C1(C/C=C\CBr)CCCCCCCCCCC1=O (stereo not given)	3.43 µM (inactive)	11.2 µM (inactive)	2.88 µM (inactive)	15.6 µM (inactive)	12.4 µM (inactive)	7.01 µM (inactive)	12.8 µM (inactive)	15.7 µM (inactive)	14.3 µM (inactive)	8.22 µM (inactive)	2.9 µM (inactive)	17.5 µM (inactive)	16.8 µM (inactive)	11.5 µM (inactive)	10.6 µM (inactive)	12 µM (inactive)	2.94 µM (inactive)	10.4 µM (inactive)	6.34 µM (inactive)	16.7
